Assay results taken from patent US20090312370A1, “MACROCYCLIC COMPOUNDS USEFUL AS BACE INHIBITORS” (priority 2006, published 2009).

Target: T1, Human BACE (Homo sapiens, UniProt P56817)
T1 construct: Recombinant BACE (extracellular domain, expressed in baculovirus and purified using standard methods); made in house; host or cells: baculovirus expression system (insect cells)
Assay: Test 1: Inhibition of Human BACE
Assay type: biochemical
Details: recombinant BACE, fluorescence-quenched peptide substrate, pH 4.5
Procedure: Test 1: Inhibition of Human BACE
Recombinant BACE (extracellular domain, expressed in baculovirus and purified using standard methods) at 0.1 to 10 nM concentrations is incubated with the test compound at various concentrations for 1 hour at room temperature in 10 to 100 mM acetate buffer, pH 4.5, containing 0.1% CHAPS.

T1 sequence (P56817 46-457 limits assumed): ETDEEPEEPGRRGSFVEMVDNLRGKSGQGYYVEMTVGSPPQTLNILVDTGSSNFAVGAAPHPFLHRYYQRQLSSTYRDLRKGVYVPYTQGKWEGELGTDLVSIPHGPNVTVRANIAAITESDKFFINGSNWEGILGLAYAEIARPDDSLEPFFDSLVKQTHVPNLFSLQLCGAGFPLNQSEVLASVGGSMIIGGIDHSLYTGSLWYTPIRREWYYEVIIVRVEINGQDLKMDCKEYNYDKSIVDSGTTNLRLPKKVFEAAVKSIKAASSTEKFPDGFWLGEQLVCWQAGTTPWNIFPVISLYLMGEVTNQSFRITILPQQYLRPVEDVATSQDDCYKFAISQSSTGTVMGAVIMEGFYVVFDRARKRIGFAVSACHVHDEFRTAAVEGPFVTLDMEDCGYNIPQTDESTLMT

SMILES: COc1cc2cc(c1)C(=O)N[C@H]([C@H](O)CNC1(c3cc(C(C)(C)C)ccn3)CC1)C[C@H](C)CCCCCCCN2 [Example 7, (10R,12S)-12-{(R)-2-[1-(4-tert-Butyl-pyrid-2-yl)-cyclopropylamino]-1-hydroxy-ethyl}-17-methoxy-10-methyl-2,13-diaza-bicyclo[13.3.1]nonadeca-1(19),15,17-trien-14-one]
- IC50: 40 nM
